Target: ASK1 (Homo sapiens (Human), UniProt Q99683)
Experiment: HTRF KinEASE assay, inhibition of ASK1
Type: biochemical
Details: ASK1 kinase, 100 μM ATP, 1 μM STK3 peptide substrate, TR-FRET
Experimental: Assay HTRF® KinEASE™ Assay
ASK1 was purchased from Thermofisher (Catalogue #PV4011), ATP was purchased from Sigma (Catalogue #A7699), HTRF® KinEASE™ Assay System was obtained from Cisbio (Bedford, Mass.). ½ Area plate was purchased from Perkin Elmer (Catalogue ##6005560). HTRF® KinEASE™-STK is a generic method for measuring serine/threonine kinase activities using a time-resolved fluorescence resonance energy transfer (TR-FRET) immunoassay. The IC50 value for each compound was determined in the presence of compound (various concentration from 0 to 10 μM) and a fixed amount of ATP and peptide substrates. The test compound, 1 μM STK3 peptide substrate, and […] of ASK1 kinase are incubated with kinase reaction buffer containing 50 mM HEPES Ph 7.5, 0.01% BRIJ-35, 10 mM MgCl2, and 1 mM EGTA for 30 minutes. 100 μM ATP is added to start kinase reaction and incubated for 3 hours. The STK3-antibody labeled with Eu^3+-Cryptate and 125 nM streptavidin-XL665 are mixed in a single addition with stop reagents provided by the Cisbio kit used to stop the kinase reaction. Fluorescence is detected using an Envision Multilabeled 2014 reader from PerkinElmer. The Fluorescence is measured at 615 nm (Cryptate) and 665 nm (XL665) and a ratio of 665 nm/615 nm is calculated for each well. The resulting TR-FRET is proportional to the phosphorylation level. Staurosporine was used as the positive control. IC50 was determined by Xlfit 5.3.
By using above method, the inhibition of ASK1 was evaluated for the compounds of Formula (I). Example numbers correspond to those in Table 6.

Sequence of ASK1 (Q99683 whole entry): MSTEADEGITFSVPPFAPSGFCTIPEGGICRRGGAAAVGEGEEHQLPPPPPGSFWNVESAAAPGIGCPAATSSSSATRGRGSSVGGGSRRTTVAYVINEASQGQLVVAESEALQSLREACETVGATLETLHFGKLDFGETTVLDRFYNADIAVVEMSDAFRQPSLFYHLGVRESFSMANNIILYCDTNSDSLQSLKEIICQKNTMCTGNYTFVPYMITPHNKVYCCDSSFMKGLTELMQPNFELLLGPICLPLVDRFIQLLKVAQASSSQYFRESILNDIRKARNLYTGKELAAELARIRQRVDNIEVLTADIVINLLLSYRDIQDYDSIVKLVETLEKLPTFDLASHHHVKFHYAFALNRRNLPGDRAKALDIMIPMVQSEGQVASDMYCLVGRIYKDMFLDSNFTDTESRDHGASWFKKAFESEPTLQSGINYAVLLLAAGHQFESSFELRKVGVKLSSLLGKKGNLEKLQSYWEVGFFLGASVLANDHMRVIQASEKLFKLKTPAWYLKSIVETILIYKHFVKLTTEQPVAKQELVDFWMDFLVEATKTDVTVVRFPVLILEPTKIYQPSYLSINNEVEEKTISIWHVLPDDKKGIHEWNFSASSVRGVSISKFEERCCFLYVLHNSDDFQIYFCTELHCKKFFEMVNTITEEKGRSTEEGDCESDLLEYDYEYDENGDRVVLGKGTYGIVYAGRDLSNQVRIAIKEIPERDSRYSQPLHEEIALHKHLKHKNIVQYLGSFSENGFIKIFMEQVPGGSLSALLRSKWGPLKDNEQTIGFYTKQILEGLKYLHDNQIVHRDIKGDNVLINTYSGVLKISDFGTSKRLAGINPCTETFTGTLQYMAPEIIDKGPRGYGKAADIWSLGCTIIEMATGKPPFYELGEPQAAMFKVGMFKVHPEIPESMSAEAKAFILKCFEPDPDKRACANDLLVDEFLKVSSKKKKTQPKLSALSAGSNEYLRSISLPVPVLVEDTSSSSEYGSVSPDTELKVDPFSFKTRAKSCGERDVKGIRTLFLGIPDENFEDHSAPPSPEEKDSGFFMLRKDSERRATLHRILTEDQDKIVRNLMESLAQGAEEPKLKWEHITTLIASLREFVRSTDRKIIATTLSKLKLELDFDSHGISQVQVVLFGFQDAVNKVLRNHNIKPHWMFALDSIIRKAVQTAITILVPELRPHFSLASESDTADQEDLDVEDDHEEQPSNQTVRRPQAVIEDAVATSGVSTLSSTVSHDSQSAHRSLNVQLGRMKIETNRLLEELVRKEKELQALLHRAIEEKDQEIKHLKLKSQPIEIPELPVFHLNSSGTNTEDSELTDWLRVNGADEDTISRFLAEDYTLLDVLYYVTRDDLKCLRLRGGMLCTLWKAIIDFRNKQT

| SMILES | IC50 [nM] |
| --- | --- |
| CCOC(=O)N1CCc2cc(F)c(C(=O)Nc3cccc(-c4nnc5n4[C@H](C)CC5)n3)cc2C1 [Example 12] | 1.25 to 10 |
| COc1cc2c(cc1C(=O)Nc1cccc(-c3nnc4n3C(C)(C)CC4)n1)CN(C(=O)[C@@H](O)CC(C)C)CC2 [Example 19, (S)—N-(6-(5,5-dimethyl-6,7-dihydro-5H-pyrrolo[2,1-c][1,2,4]triazol-3-yl)pyridin-2-yl)-2-(2-hydroxy-4-methylpentanoyl)-6-methoxy-1,2,3,4-tetrahydroisoquinoline-7-carboxamide] | < 1.25 |
| COCCC(=O)N1CCc2cc(OC)c(C(=O)Nc3cccc(-c4nnc5n4C(C)(C)CC5)n3)cc2C1 [Example 16, N-(6-(5,5-dimethyl-6,7-dihydro-5H-pyrrolo[2,1-c][1,2,4]triazol-3-yl)pyridin-2-yl)-6-methoxy-2-(3-methoxypropanoyl)-1,2,3,4-tetrahydroisoquinoline-7-carboxamide] | < 1.25 |
| CCOC(=O)N1CCc2cc(F)c(C(=O)Nc3cccc(-c4nnc5n4C(C)(C)CC5)n3)cc2C1 [Example 11, Ethyl 7-((6-(5,5-dimethyl-6,7-dihydro-5H-pyrrolo[2,1-c][1,2,4]triazol-3-yl)pyridin-2-yl)carbamoyl)-6-fluoro-3,4-dihydroisoquinoline-2(1H)-carboxylate] | 1.25 to 10 |
| CCOC(=O)N1CCc2cc(OC)c(C(=O)Nc3cccc(-c4nnc5n4CCC5)n3)cc2C1 [Example 21, Ethyl 7-((6-(6,7-dihydro-5H-pyrrolo[2,1-c][1,2,4]triazol-3-yl)pyridin-2-yl)carbamoyl)-6-methoxy-3,4-dihydroisoquinoline-2(1H)-carboxylate] | 1.25 to 10 |
| COc1cc2c(cc1C(=O)Nc1cccc(-c3nnc4n3C(C)(C)CC4)n1)CN(C(=O)C(C)(C)CO)CC2 [Example 17, N-(6-(5,5-dimethyl-6,7-dihydro-5H-pyrrolo[2,1-c][1,2,4]triazol-3-yl)pyridin-2-yl)-2-(3-hydroxy-2,2-dimethylpropanoyl)-6-methoxy-1,2,3,4-tetrahydroisoquinoline-7-carboxamide] | < 1.25 |
| COc1cc2c(cc1C(=O)Nc1cccc(-c3nnc4n3C(C)(C)CC4)n1)CN(C(=O)OC(C)(C)C)CC2 [Example 14, tert-butyl 7-((6-(5,5-dimethyl-6,7-dihydro-5H-pyrrolo[2,1-c][1,2,4]triazol-3-yl)pyridin-2-yl)carbamoyl)-6-methoxy-3,4-dihydroisoquinoline-2(1H)-carboxylate] | 1.25 to 10 |
| COc1cc2c(cc1C(=O)Nc1cccc(-c3nnc4n3C(C)(C)CC4)n1)CN(C(=O)C[C@H](C)O)CC2 [Example 18, (S)—N-(6-(5,5-dimethyl-6,7-dihydro-5H-pyrrolo[2,1-c][1,2,4]triazol-3-yl)pyridin-2-yl)-2-(3-hydroxybutanoyl)-6-methoxy-1,2,3,4-tetrahydroisoquinoline-7-carboxamide] | < 1.25 |
| CCOC(=O)N1CCc2cnc(C(=O)Nc3cccc(-c4nnc5n4[C@H](C)CC5)n3)cc2C1 [Example 15] | 1.25 to 10 |
| COc1cc2c(cc1C(=O)Nc1cccc(-c3nnc4n3C(C)(C)CC4)n1)CN(C(=O)C(C)(C)O)CC2 [Example 20, N-(6-(5,5-dimethyl-6,7-dihydro-5H-pyrrolo[2,1-c][1,2,4]triazol-3-yl)pyridin-2-yl)-2-(2-hydroxy-2-methylpropanoyl)-6-methoxy-1,2,3,4-tetrahydroisoquinoline-7-carboxamide] | < 1.25 |
| CCOC(=O)N1CCc2cc(F)c(C(=O)Nc3cccc(-c4nnc5n4[C@@H](C)CC5)n3)cc2C1 [Example 13] | 10 to 100 |

Source: US11466033B2 (ENANTA PHARMACEUTICALS, INC., priority 2019, dated 2022)
